Counter-ions that a name gives are not always drawn. Like-named read-outs stand apart in the source and are kept apart here.
Experimental: The stability of dexmedetomidine hydrochloride to acidic, basic, oxidative and photolytic stress was examined. […] Each sample was injected in duplicate.

SMILES: Cc1cccc([C@H](C)c2cnc[nH]2)c1C [dexmedetomidine hydrochloride]
- degradation compared to the control sample (8 h, 13.3 μg/mL): 12.7%
- Assay (Acid Sample: 5N Hydrochloric Acid, 60° C., 8 hours): 95.2%
- Assay (Base Sample: 2N Sodium Hydroxide, 60° C., 4 hours): 93.8%
- Assay (Control Sample, not subjected to any stress): 98.4%
- Assay (Heat Sample: 60° C., 8 hours): 98.4%
- Assay (Light Sample: photochemical reaction unit, 24 hours): 92.0%
- Assay (Oxidation Sample: 0.3% Hydrogen Peroxide, 60° C., 8 hours): 85.7%

Reference: patent US10016396B2, “Dexmedetomidine premix formulation” (Hospira, Inc., priority 2012, dated 2018)
